Some test systems named below: A498 renal; BT-549 breast; RPMI-8226 leukemia; SK-MEL-2 melanoma; SK-OV-3 ovarian; SNB-75 CNS; SW-620 colon; T-47D breast; M19-MEL melanoma.
Common to all, as to assay: DTP human tumour cell line panel, 48 h

The record followed here is PubChem BioAssay (NCI).

For orientation: TGI means the concentration giving total growth inhibition. The term GI50 denotes the concentration giving 50% growth inhibition.

“And” between values parts separate entries of the source, which are not always exact repeats. Identical values can stand only once.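 Method: 48-hour compound exposure of cells in 96-well plates, five concentrations, linear interpolation of endpoints. Here, GI50 denotes the concentration required for 50% inhibition of growth. TGI denotes the concentration required for complete inhibition of growth.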 Bounds are passed on as bounds.

With `CSC1(CC(=O)N(C)C)C(=O)Nc2ccccc21` (stereo not given), the total growth inhibition concentration (TGI) with A498 renal, in the test with BT-549 breast, in the test on RPMI-8226 leukemia, in the test with SK-MEL-2 melanoma, in the test on SK-OV-3 ovarian and with SNB-75 CNS was more than 100 µM throughout. Also, the TGI in the test with SW-620 colon and in the test with T-47D breast was more than 100 µM each time.

Regarding `O=C(Nc1cccc(Cl)c1)c1cc2ccccc2cc1O`, the GI50 is 0.742 µM and 1.08 µM with A498 renal; 2.42 µM and 1.84 µM with BT-549 breast; 1.52 µM and 0.535 µM in the test with RPMI-8226 leukemia; 0.415 µM and 2.94 µM in the test with SK-MEL-2 melanoma; 1.23 µM in the test on SK-OV-3 ovarian; 1.62 µM and 1.55 µM in the test with SNB-75 CNS. Moreover, the GI50 with SW-620 colon was 3.14 µM and 3.1 µM; in the test on T-47D breast it was 1.88 µM and 1.73 µM. In addition, the TGI with A498 renal was 4.34 µM and 4.64 µM; in the test with BT-549 breast, 7.66 µM and 9.29 µM; in the test with SK-MEL-2 melanoma it was 4.63 µM and 40.8 µM; in the test with SK-OV-3 ovarian, 4.95 µM; in the test with SNB-75 CNS, more than 100 µM; in the test on SW-620 colon, more than 100 µM. In addition, the concentration for total growth inhibition (TGI) with T-47D breast was 8.92 µM and 6.82 µM.

On to `O=C(O)c1c(-c2nccc3ccccc23)[nH]c(-c2ccccc2)c1S(=O)(=O)O`, for which the TGI with A498 renal, in the test with BT-549 breast, in the test with RPMI-8226 leukemia, in the test with SK-MEL-2 melanoma, in the test with SK-OV-3 ovarian and in the test with SNB-75 CNS was more than 100 µM in each case. Besides, the TGI in the test on SW-620 colon and in the test on T-47D breast was more than 100 µM in each case.

Turning to `O=C1c2ccn(CCCCNC(CO)(CO)CO)c2C(=O)c2c1c(O)c1ccccc1c2O`, the GI50 in the test with A498 renal was 16.5 µM; in the test on BT-549 breast it was 22.7 µM; in the test with RPMI-8226 leukemia, 1.21 µM; in the test on SK-MEL-2 melanoma it was 31.6 µM; with SK-OV-3 ovarian, 7.81 µM; in the test on SNB-75 CNS, 11.9 µM. Also, the GI50 is 2.02 µM in the test on SW-620 colon and 2.76 µM with T-47D breast. For the same compound, the TGI in the test on A498 renal was 46.8 µM; in the test with BT-549 breast it was 69.9 µM; with RPMI-8226 leukemia, 11 µM; with SK-MEL-2 melanoma it was more than 100 µM; in the test on SK-OV-3 ovarian, more than 47.8 µM; in the test with SNB-75 CNS, 47.2 µM. For the same compound, the TGI in the test with SW-620 colon is 13 µM; in the test on T-47D breast it was more than 22.1 µM.

For the compound `O=C(N/N=C\c1cc(Br)ccc1O)c1ccncc1`, the GI50 in the test with A498 renal was 5.82 µM; in the test on BT-549 breast it was 2.57 µM; in the test on RPMI-8226 leukemia, 3.08 µM; with SK-MEL-2 melanoma, 4.29 µM; in the test on SK-OV-3 ovarian, 4.79 µM; in the test on SNB-75 CNS, 4.83 µM. Moreover, the GI50 is 2.66 µM with SW-620 colon and 2.19 µM in the test with T-47D breast. The TGI in the test on A498 renal was 77.3 µM; with BT-549 breast it was 40.8 µM; with RPMI-8226 leukemia, more than 100 µM; in the test with SK-MEL-2 melanoma, more than 100 µM; with SK-OV-3 ovarian, more than 100 µM; in the test on SNB-75 CNS, 51.1 µM. Also, the concentration for total growth inhibition (TGI) in the test on SW-620 colon was more than 100 µM; with T-47D breast it was 62.5 µM.

On to `COc1cc2cn3c4ccc(O)cc4[nH]c(=O)c3c2cc1OC`, for which the GI50 in the test with A498 renal was 0.02 µM; in the test with BT-549 breast it was 0.435 µM; with RPMI-8226 leukemia, 1.25 µM; in the test with SK-MEL-2 melanoma, 0.0398 µM; in the test with SK-OV-3 ovarian, 0.0367 µM; in the test with SNB-75 CNS, 0.0197 µM. The GI50 is less than 0.0119 µM in the test with SW-620 colon and 0.0199 µM with T-47D breast. Also, the TGI with A498 renal stood at 10.8 µM; in the test on BT-549 breast, 2.26 µM; in the test on RPMI-8226 leukemia, 10.4 µM; in the test on SK-MEL-2 melanoma, 5.36 µM; in the test on SK-OV-3 ovarian, 1.95 µM; with SNB-75 CNS it was 1.47 µM. In addition, the TGI in the test with SW-620 colon is 1.83 µM; in the test with T-47D breast, 2.05 µM.

As for `O=C(CSc1nnc(-c2ccccc2NC(=O)C(F)(F)F)c(=O)[nH]1)NC(=O)Nc1ccccc1`, the TGI in the test with M19-MEL melanoma is more than 100 µM; in the test with SK-MEL-2 melanoma, more than 100 µM; with SK-OV-3 ovarian, more than 100 µM; in the test with SNB-75 CNS, 45 µM; with SW-620 colon it was more than 100 µM.

For `Nc1nc(Cl)cc(NCCO)n1`, the TGI with A498 renal, in the test on BT-549 breast, in the test on RPMI-8226 leukemia, with SK-MEL-2 melanoma, in the test with SK-OV-3 ovarian and with SNB-75 CNS was more than 100 µM throughout. Further, the TGI with SW-620 colon and in the test on T-47D breast was more than 100 µM each time.

With `CC(=O)c1c(CBr)n([O-])c2ccccc2[n+]1=O`, the GI50 in the test on A498 renal is 23.6 µM; in the test on BT-549 breast it was 9.61 µM; with RPMI-8226 leukemia, 4.9 µM; in the test with SK-MEL-2 melanoma, 14.4 µM; in the test on SK-OV-3 ovarian, 22.9 µM; in the test on SNB-75 CNS it was 14.7 µM. Moreover, the GI50 is 2.04 µM in the test with SW-620 colon and 2.87 µM in the test on T-47D breast. In addition, the total growth inhibition concentration (TGI) was determined as 54.8 µM in the test with A498 renal; 21.5 µM in the test with BT-549 breast; 30.5 µM in the test with RPMI-8226 leukemia; 30 µM in the test on SK-MEL-2 melanoma; 71 µM with SK-OV-3 ovarian; 29.6 µM in the test with SNB-75 CNS. Besides, the TGI in the test with SW-620 colon is 4.15 µM; with T-47D breast, 11.4 µM.

With `COc1ccc(-c2cc(-c3cccn3C)c(C#N)c(N)n2)cc1OC`, the GI50 with A498 renal was 82.8 µM; in the test with BT-549 breast, 64 µM; in the test with RPMI-8226 leukemia it was 38.5 µM; in the test with SK-MEL-2 melanoma, more than 100 µM; in the test on SK-OV-3 ovarian it was more than 100 µM; with SNB-75 CNS, 21.1 µM. The GI50 with SW-620 colon and in the test with T-47D breast was more than 100 µM each time. Moreover, the concentration for total growth inhibition (TGI) in the test on A498 renal was more than 100 µM; in the test on BT-549 breast it was more than 100 µM; in the test with RPMI-8226 leukemia, more than 100 µM; in the test on SK-MEL-2 melanoma it was more than 100 µM; with SK-OV-3 ovarian, more than 100 µM; with SNB-75 CNS it was 70.9 µM. Besides, the TGI with SW-620 colon and in the test with T-47D breast was more than 100 µM each time.

For `CCOC(=O)N1CCN(C(=O)c2ccc(C(F)(F)F)nc2Nc2cc(Cl)ccc2C)CC1`, the GI50 in the test with A498 renal is 21.1 µM; in the test on BT-549 breast, 19.2 µM; with RPMI-8226 leukemia, 11.4 µM; in the test on SK-MEL-2 melanoma, 22.3 µM; in the test on SK-OV-3 ovarian it was more than 100 µM; in the test with SNB-75 CNS it was 1.41 µM. The results for the GI50 in the test with SW-620 colon and with T-47D breast were 15.4 µM and more than 100 µM, respectively. For the same compound, the TGI was 56.4 µM in the test with A498 renal; 73.2 µM with BT-549 breast; 64.8 µM with RPMI-8226 leukemia; 72.9 µM in the test on SK-MEL-2 melanoma; more than 100 µM in the test with SK-OV-3 ovarian; 24.1 µM in the test with SNB-75 CNS. Besides, the total growth inhibition concentration (TGI) was 92.9 µM in the test on SW-620 colon and more than 100 µM with T-47D breast.
